From DBAASP
≈ marks a conversion by molar mass, not a printed value.

Assays:
Experiment in all cases: ≥ marks a high value that may be exact or a test limit, other limits are often not marked, values filed in µg/mL are converted to µM
[1] = tested on: Salmonella enterica subsp. enterica serovar Typhi ATCC 6399
[2] = tested on: Bacillus subtilis ATCC 6633
[3] = tested on: Staphylococcus aureus ATCC 25923
[4] = tested on: Escherichia coli ATCC 25922
[5] = tested on: Streptococcus agalactiae
[6] = tested on: Pseudomonas aeruginosa ATCC 9027
[7] = tested on: Staphylococcus aureus CVCC 1882
[8] = tested on: Escherichia coli CVCC 1570
[9] = tested on: Bacillus subtilis CVCC 717
[10] = tested on: Bacillus pumilus CVCC 709
[11] = tested on: Micrococcus luteus CVCC 1600
[12] = tested on: Botrytis cinerea
[13] = tested on: Candida albicans ATCC 10231
[14] = tested on: Escherichia coli ATCC 11775
[15] = tested on: Staphylococcus aureus ATCC 12600
[16] = tested on: Pseudomonas aeruginosa 213
[17] = tested on: Enterococcus faecalis W61950
[18] = tested on: Klebsiella pneumoniae ESBL 61962
[19] = tested on: Escherichia coli ESBL 63103
[20] = tested on: Pseudomonas aeruginosa LES400
[21] = tested on: Stenotrophomonas maltophilia ATCC 13637
[22] = tested on: Pseudomonas aeruginosa 198
[23] = tested on: Pseudomonas aeruginosa H1027
[24] = tested on: Enterococcus faecalis ATCC 29212
[25] = tested on: Pseudomonas aeruginosa PAO1 H103
[26] = tested on: Pseudomonas aeruginosa H1030
[27] = tested on: Enterococcus faecium t62764
[28] = tested on: Pseudomonas aeruginosa 9
[29] = tested on: Enterococcus faecium mic80
[30] = tested on: Enterococcus faecalis f43559
[31] = tested on: Escherichia coli ESBL 64771
[32] = tested on: Enterobacter cloacae 218R
[33] = tested on: Klebsiella pneumoniae ESBL 63575
[34] = tested on: Staphylococcus aureus C623
[35] = tested on: Bacillus subtilis
[36] = tested on: Micrococcus luteus
[37] = tested on: Shigella dysenteriae
[38] = tested on: Klebsiella pneumoniae
[39] = tested on: Staphylococcus aureus
[40] = tested on: Pseudomonas aeruginosa
[41] = tested on: Staphylococcus epidermidis
[42] = tested on: Proteus mirabilis
[43] = tested on: Escherichia coli
[44] = tested on: Salmonella typhimurium
[45] = tested on: Klebsiella pneumoniae ATCC 13883
[46] = tested on: Staphylococcus aureus USA 300 LAC

## CC[C@H](C)[C@H](NC(=O)[C@H](CO)NC(=O)[C@H](CCCCN)NC(=O)[C@H](C)NC(=O)[C@H](C)NC(=O)[C@H](CC(N)=O)NC(=O)[C@H](Cc1c[nH]c2ccccc12)NC(=O)[C@H](CC(C)C)NC(=O)[C@@H](NC(=O)[C@H](CO)NC(=O)[C@H](CC(C)C)NC(=O)[C@@H](N)Cc1ccccc1)[C@@H](C)O)C(=O)N[C@@H](Cc1ccccc1)C(N)=O [FLSTLWNAAKSIF]
[1]
  MIC: 10 µM (≈ 15 µg/mL)
[2]
  MIC: 20 µM (≈ 29.9 µg/mL)
[3]
  MIC: 10 µM (≈ 15 µg/mL)
[4]
  MIC: 20 µM (≈ 29.9 µg/mL)
[5]
  MIC: 20 µM (≈ 29.9 µg/mL)
[6]
  MIC: 10 µM (≈ 15 µg/mL)

## CC[C@H](C)[C@H](NC(=O)[C@H](CO)NC(=O)[C@H](CCCCN)NC(=O)[C@H](CCCN=C(N)N)NC(=O)[C@H](C)NC(=O)[C@H](C)NC(=O)CN)C(=O)N[C@@H](CCCN=C(N)N)C(=O)N[C@@H](CC(C)C)C(=O)N[C@@H](Cc1cnc[nH]1)C(=O)N[C@@H](CCCN=C(N)N)C(=O)N[C@@H](CC(C)C)C(=O)N[C@@H](Cc1ccc(O)cc1)C(=O)N[C@H](C(=O)N[C@@H](Cc1c[nH]c2ccccc12)C(=O)N[C@@H](CCCCN)C(=O)N[C@@H](C)C(=O)N[C@H](C(=O)N[C@H](C(=O)N[C@@H](Cc1ccc(O)cc1)C(=O)N[C@H](C(=O)N[C@@H](CCCN=C(N)N)C(=O)O)[C@@H](C)O)[C@@H](C)CC)[C@@H](C)O)[C@@H](C)O [GAARKSIRLHRLYTWKATIYTR]
[7]
  MIC: 23.3 µM (≈ 62 µg/mL)
[8]
  MIC: 16.7 µM (≈ 44.5 µg/mL)
[9]
  MIC: 13.3 µM (≈ 35.4 µg/mL)
[10]
  MIC: 9 µM (≈ 24 µg/mL)
[11]
  MIC: 8 µM (≈ 21.3 µg/mL)

## CC[C@H](C)[C@H](N)C(=O)N[C@@H](CC(C)C)C(=O)NCC(=O)N[C@H](C(=O)N[C@H](C(=O)N[C@H](C(=O)N[C@@H](CO)C(=O)N[C@@H](CC(C)C)C(=O)N[C@@H](CC(C)C)C(=O)N[C@@H](CCCCN)C(=O)N[C@@H](CO)C(=O)N[C@@H](CC(C)C)C(N)=O)[C@@H](C)O)[C@@H](C)CC)[C@@H](C)CC [ILGIITSLLKSL]
[12]
  MIC: 0.394 µM (≈ 0.5 µg/mL)
[13]
  MIC: 15.7 µM (≈ 20 µg/mL)
[14]
  MIC: ≥ 78.7 µM
[15]
  MIC: 19.7 µM (≈ 25 µg/mL)

## CSCC[C@H](NC(=O)[C@@H](NC(=O)[C@H](C)NC(=O)[C@@H]1CCCN1C(=O)[C@H](CO)NC(=O)[C@@H](N)CC(C)C)C(C)C)C(=O)N[C@@H](C)C(=O)N[C@@H](CO)C(=O)N[C@@H](CC(C)C)C(=O)N[C@@H](C)C(N)=O [LSPAVMASLA]
[12]
  MIC: ≥ 200 µM
[13]
  MIC: > 200 µM
[14]
  MIC: ≥ 200 µM
[15]
  MIC: ≥ 200 µM

## CC[C@H](C)[C@H](NC(=O)[C@H](Cc1c[nH]c2ccccc12)NC(=O)[C@H](Cc1c[nH]c2ccccc12)NC(=O)[C@H](CCCCN)NC(=O)[C@H](CC(C)C)NC(=O)[C@H](CCCN=C(N)N)NC(=O)[C@H](CCCCN)NC(=O)[C@@H](N)CCCN=C(N)N)C(=O)N[C@@H](Cc1ccc(O)cc1)C(=O)O [RKRLKWWIY]
[16]
  MIC: 27.4 µM (≈ 37 µg/mL)
[17]
  MIC: ≥ 110 µM
[18]
  MIC: ≥ 110 µM
[19]
  MIC: 3.48 µM (≈ 4.7 µg/mL)
[20]
  MIC: 27.4 µM (≈ 37 µg/mL)
[21]
  MIC: 1.78 µM (≈ 2.4 µg/mL)
[3]
  MIC: 3.48 µM (≈ 4.7 µg/mL)
[22]
  MIC: 27.4 µM (≈ 37 µg/mL)
[23]
  MIC: 3.48 µM (≈ 4.7 µg/mL)
[24]
  MIC: 27.4 µM (≈ 37 µg/mL)
[25]
  MIC: 13.3 µM (≈ 18 µg/mL)
[26]
  MIC: 27.4 µM (≈ 37 µg/mL)
[27]
  MIC: 1.78 µM (≈ 2.4 µg/mL)
[28]
  MIC: 27.4 µM (≈ 37 µg/mL)
[29]
  MIC: 7.12 µM (≈ 9.6 µg/mL)
[30]
  MIC: ≥ 110 µM
[31]
  MIC: 3.48 µM (≈ 4.7 µg/mL)
[32]
  MIC: 7.12 µM (≈ 9.6 µg/mL)
[33]
  MIC: 27.4 µM (≈ 37 µg/mL)
[34]
  MIC: 3.48 µM (≈ 4.7 µg/mL)

## NCCCC[C@H](NC(=O)[C@H](Cc1c[nH]c2ccccc12)NC(=O)[C@H](Cc1c[nH]c2ccccc12)NC(=O)[C@H](CCCCN)NC(=O)[C@H](CCCCN)NC(=O)[C@@H](N)Cc1c[nH]c2ccccc12)C(=O)N[C@@H](CCCN=C(N)N)C(=O)N[C@@H](CCCN=C(N)N)C(=O)N[C@@H](Cc1c[nH]c2ccccc12)C(=O)O [WKKWWKRRW]
[16]
  MIC: ≥ 43.2 µM
[17]
  MIC: ≥ 87 µM
[18]
  MIC: ≥ 87 µM
[19]
  MIC: 11 µM (≈ 16 µg/mL)
[20]
  MIC: 21.2 µM (≈ 31 µg/mL)
[21]
  MIC: 0.685 µM (≈ 1 µg/mL)
[3]
  MIC: 0.685 µM (≈ 1 µg/mL)
[22]
  MIC: 21.2 µM (≈ 31 µg/mL)
[23]
  MIC: 2.74 µM (≈ 4 µg/mL)
[24]
  MIC: 43.2 µM (≈ 63 µg/mL)
[25]
  MIC: 11 µM (≈ 16 µg/mL)
[26]
  MIC: 21.2 µM (≈ 31 µg/mL)
[27]
  MIC: 2.74 µM (≈ 4 µg/mL)
[28]
  MIC: 21.2 µM (≈ 31 µg/mL)
[29]
  MIC: 5.62 µM (≈ 8.2 µg/mL)
[30]
  MIC: ≥ 87 µM
[31]
  MIC: 1.37 µM (≈ 2 µg/mL)
[32]
  MIC: 11 µM (≈ 16 µg/mL)
[33]
  MIC: 21.2 µM (≈ 31 µg/mL)
[34]
  MIC: 1.37 µM (≈ 2 µg/mL)

## CC(C)C[C@H](NC(=O)[C@@H](NC(=O)[C@H](CCCCN)NC(=O)[C@H](CO)NC(=O)[C@H](C)NC(=O)[C@@H](NC(=O)[C@H](CCCCN)NC(=O)[C@H](Cc1ccccc1)NC(=O)[C@H](CC(C)C)NC(=O)[C@H](C)NC(=O)CNC(=O)[C@H](CC(C)C)NC(=O)[C@@H](N)Cc1c[nH]c2ccccc12)C(C)C)C(C)C)C(=O)O [WLGALFKVASKVL]
[35]
  MIC: 4.4 µM (≈ 6.3 µg/mL)
[36]
  MIC: 1.12 µM (≈ 1.6 µg/mL)
[37]
  MIC: 17.5 µM (≈ 25 µg/mL)
[38]
  MIC: 17.5 µM (≈ 25 µg/mL)
[39]
  MIC: 1.12 µM (≈ 1.6 µg/mL)
[40]
  MIC: 69.8 µM (≈ 100 µg/mL)
[41]
  MIC: 2.17 µM (≈ 3.1 µg/mL)
[42]
  MIC: ≥ 140 µM
[43]
  MIC: 8.73 µM (≈ 12.5 µg/mL)
[44]
  MIC: ≥ 69.8 µM

## CC[C@H](C)[C@H](NC(=O)[C@H](CCCCN)NC(=O)[C@H](CCCN=C(N)N)NC(=O)[C@H](CC(C)C)NC(=O)[C@H](Cc1c[nH]c2ccccc12)NC(=O)[C@@H](N)Cc1c[nH]c2ccccc12)C(=O)N[C@@H](Cc1c[nH]c2ccccc12)C(=O)N[C@@H](Cc1c[nH]c2ccccc12)C(N)=O [WWLRKIWW]
[45]
  MIC: ≥ 50 µM
[46]
  MIC: 6.2 µM (≈ 7.89 µg/mL)
[4]
  MIC: 25 µM (≈ 31.8 µg/mL)
